For data set [1], the system named is skin dermis and subcutis above MDA-MB231 tumor. Put plainly: Normal tissue reaction, skin above the tumor. The class given is in vivo, NMRI-Foxn1nu mice. The settings on record: some of the mice treated with the high concentration and volume of calcium. As to the method:
MDA-MB231, a human breast cancer cell line was used for the in vivo experiments. The cells were tested by rapid MAP27 panel (Taconic, Hudson N.Y.) before use without signs of infection. Cells were maintained in vitro as described in Example 1. 2.5×10^6 cells/100 μl PBS were injected subcutaneously in the flank of NMRI-Foxn1nu mice (Harlan, Indianapolis, Ind.). Tumor pieces were transplanted twice from donor mice to the flank of nude mice that were 13-19 weeks old. HYPNORM™-DORMICUM™ (fentanyl/fluanisone/midazolam; VetaPharma, Leeds, U K and Roche, Basel, Switzerland) was used for anesthesia complemented with RIMADYL® (Carprofen) (Pfizer ApS, Ballerup, Denmark) as well as lidocaine (Region Hovedstadens Apotek, Herlev, Denmark) in the incision. […] Tumor volume was calculated as ab2n/6, where “a” is the largest diameter and “b” is the largest diameter perpendicular to “a”. […] Estimation of normal tissue damages was evaluated semiquantitatively on HE-sections by light[ ]microscopy (LEICA® DM 2000 light microscope, Leica Microsystems, Wetzlar, Germany).
The presence of inflammation in the skin dermis and subcutis was scored from 1-3 (1=minimal, 2=moderate and 3=severe). Edema in the dermis, extravasations of erythrocytes and vasculitis was noted if present, but not scored.

Data set [2] deals with muscle below MDA-MB231 tumor. The data set is described as follows: Normal tissue reaction, muscle below the tumor. The data set is classed as in vivo, NMRI-Foxn1nu mice. The following applies: for fraction of necrosis in muscle tissue: with electroporation, 7 days. As to the method:
MDA-MB231, a human breast cancer cell line was used for the in vivo experiments. The cells were tested by rapid MAP27 panel (Taconic, Hudson N.Y.) before use without signs of infection. Cells were maintained in vitro as described in Example 1. 2.5×10^6 cells/100 μl PBS were injected subcutaneously in the flank of NMRI-Foxn1nu mice (Harlan, Indianapolis, Ind.). Tumor pieces were transplanted twice from donor mice to the flank of nude mice that were 13-19 weeks old. HYPNORM™-DORMICUM™ (fentanyl/fluanisone/midazolam; VetaPharma, Leeds, U K and Roche, Basel, Switzerland) was used for anesthesia complemented with RIMADYL® (Carprofen) (Pfizer ApS, Ballerup, Denmark) as well as lidocaine (Region Hovedstadens Apotek, Herlev, Denmark) in the incision. Mice were randomised at a tumor volume above 85 mm^3 and tumors were treated with 1) injection of calcium-chloride solution and electroporation (8 pulses of 1.0 kV/cm for 100 μs and a frequency of 1 Hz) using a 6 mm plate electrode and a square wave electroporator (CLINIPORATOR®, IGEA, Modena, Italy), 2) calcium-free physiological saline injection and electroporation (same parameters as above), 3) injection of calcium-chloride, 4) calcium-free physiological saline injection, or 5) untreated but with needle inserted in the tumor without injection and with electrodes put on the tumor without pulses applied. […] Tumor volume was calculated as ab2n/6, where “a” is the largest diameter and “b” is the largest diameter perpendicular to “a”. […] Estimation of normal tissue damages was evaluated semiquantitatively on HE-sections by light[ ]microscopy (LEICA® DM 2000 light microscope, Leica Microsystems, Wetzlar, Germany).
The presence of necrosis in the muscle samples were scored by counting numbers of necrotic myocytes per 10 HPF (400× magnification). Necrosis was only recorded if the myocytes had lost the nucleus. Increased eosinofilic intensity in the myocyte cytoplasm with a retained nucleus was not recorded as a necrotic fiber. […]

Data set [3] has as its system H69 (human small cell lung cancer) tumors. The data set is described as follows: Tumor volume and fluorescence intensity of H69 tumors on nude mice. The following applies: for necrosis of skin / healthy tissue around the tumor: injected volume equivalent to the tumor volume (1 to 1 ratio).
The mark [4] stands for this setting: 168 mM CaCl2 with electroporation.

Turning to `[Ca+2].[Cl-].[Cl-]` [calcium chloride], the “ulceration above the tumor” value in data set [1] is reported as “ulceration above the tumor was seen”. Moreover, in data set [2] (after calcium electroporation of the tumor above the muscle), the “fraction of muscle tissue affected” value was “only a minor fraction”. The “fraction of necrosis in muscle tissue” value in data set [2] (at increasing calcium concentrations) is given as “increase in the fraction of necrosis”. Further, the “fraction of necrosis in muscle tissue” value in data set [2] (at increasing injection volumes) is on record as “slight increase in the fraction of necrosis”. Also, the treated tumors eliminated in data set [3] (168 mM CaCl2 intratumoral with electroporation (8 pulses 1.0 kV/cm, 100 μs, 1 Hz), 8/9) was determined as 89%. For the same compound, in data set [3] (setting [4]), the “healing of ulceration, average” value is 18 days; the “healing of ulceration, range” value was 9 to 24 days; the “ulceration of treated tumors” value is listed as “occurs in all”. For the same compound, the “fluorescence intensity of tumors” value in data set [3] (168 mM CaCl2 with electroporation, stays at background levels) is on record as “decrease drastically”. Also, in data set [3] (with electroporation, listed as Ca^2+-EP), the “necrosis of skin / healthy tissue around the tumor” value is listed as “skin necrosis”. Moreover, the “necrosis of skin / healthy tissue around the tumor” value in data set [3] (with electroporation, listed as calcium solution) is reported as “necrotic effect on the healthy tissues surrounding the neoplasm”. Further, in data set [3] (injected volume ratio 0.5 of tumor volume, with electroporation), the “necrosis of surrounding tissue” value is on record as “without creating necrosis in the surrounding tissue”. Moreover, the “tumor volume doubling time” value in data set [3] (isotonic calcium-chloride without electroporation) is reported as 6.3 days.

The values above are taken from patent US9943599B2, “Therapeutic applications of calcium electroporation to effectively induce tumor necrosis” (Herlev Hospital, priority 2011, dated 2018).
